The values below come from patent publication US8530489B2 (Vertex Pharmaceuticals Incorporated, priority 2006, dated 2013).

The structures appear in SMILES notation. Bounds are passed on as bounds.

Chain of PLK1 (P53350 whole entry): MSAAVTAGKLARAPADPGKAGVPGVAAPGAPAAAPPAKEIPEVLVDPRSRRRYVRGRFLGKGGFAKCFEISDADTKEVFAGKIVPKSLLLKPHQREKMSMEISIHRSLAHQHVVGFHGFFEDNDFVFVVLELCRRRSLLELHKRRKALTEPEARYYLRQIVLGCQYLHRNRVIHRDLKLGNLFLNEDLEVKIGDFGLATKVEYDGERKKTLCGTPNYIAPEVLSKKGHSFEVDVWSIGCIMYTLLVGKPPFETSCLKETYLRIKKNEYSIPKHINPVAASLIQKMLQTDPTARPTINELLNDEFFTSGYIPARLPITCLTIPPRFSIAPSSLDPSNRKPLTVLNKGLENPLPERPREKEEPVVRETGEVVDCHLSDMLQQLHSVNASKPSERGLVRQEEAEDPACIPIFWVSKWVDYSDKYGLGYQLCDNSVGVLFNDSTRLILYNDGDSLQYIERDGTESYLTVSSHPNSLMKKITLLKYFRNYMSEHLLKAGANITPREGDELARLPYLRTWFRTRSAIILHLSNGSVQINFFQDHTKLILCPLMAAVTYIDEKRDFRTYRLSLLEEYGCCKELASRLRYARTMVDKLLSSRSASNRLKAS

This assay has as its target PLK1 (Homo sapiens, UniProt P53350). Nature of the assay: PLK1 Inhibition Assay I (radioactive-phosphate incorporation). It counts as biochemical. The conditions noted are these: Ki(app); PLK1 Inhibition Assay I or II (table does not say which). The procedure, abridged:
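Ki(app) values came from non-linear regression of initial rates after background subtraction, with phosphopeptide measured by phosphocellulose filter binding and scintillation counting. PLK1 at 2 nM was preincubated with compound (typically from 10 μM, 2-fold dilutions) for 10 min, then run 240 min at 25° C with 350 μM [γ-33P]ATP and 450 μM peptide substrate in HEPES pH 7.5 buffer.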
On to `C[C@H](N)C(=O)N1CCC([C@@H](C)Nc2ncc(C#N)c(-c3c[nH]c4ncc(C(F)(F)F)cc34)n2)CC1` [Compound I-243, 2-((R)-1-(1-((S)-2-aminopropanoyl)piperidin-4-yl)ethylamino)-4-(5-(trifluoromethyl)-1H-pyrrolo[2,3-b]pyridin-3-yl)pyrimidine-5-carbonitrile], for which the Ki is less than 3 nM.

With `COCCC(=O)N1CCC(C(C)Nc2ncc(C#N)c(-c3c[nH]c4ncc(C(F)(F)F)cc34)n2)CC1` (stereo not drawn) [Compound I-184, 2-(1-(1-(3-methoxypropanoyl)piperidin-4-yl)ethylamino)-4-(5-(trifluoromethyl)-1H-pyrrolo[2,3-b]pyridin-3-yl)pyrimidine-5-carbonitrile], the Ki is less than 3 nM.

In the case of `C[C@@H](Nc1ncc(C#N)c(-c2c[nH]c3ncc(C(F)(F)F)cc23)n1)c1ccc(N2CC[C@H](N(C)C)C2)nc1` [Compound I-290, 2-((R)-1-(6-((S)-3-(dimethylamino)pyrrolidin-1-yl)pyridin-3-yl)ethylamino)-4-(5-(trifluoromethyl)-1H-pyrrolo[2,3-b]pyridin-3-yl)pyrimidine-5-carbonitrile], the Ki is 3 to 40 nM.

As for `C[C@@H](Nc1ncc(C#N)c(-c2c[nH]c3ncc(C(F)(F)F)cc23)n1)c1ccc(N2CCCN(C)CC2)nc1` [Compound I-292, 2-((R)-1-(6-(4-methyl-1,4-diazepan-1-yl)pyridin-3-yl)ethylamino)-4-(5-(trifluoromethyl)-1H-pyrrolo[2,3-b]pyridin-3-yl)pyrimidine-5-carbonitrile], the Ki is less than 3 nM.

On to `CC(C)Sc1ncc(C#N)c(-c2c[nH]c3ncc(C(F)(F)F)cc23)n1` [II-12, 2-(isopropylthio)-4-(5-(trifluoromethyl)-1H-pyrrolo[2,3-b]pyridin-3-yl)pyrimidine-5-carbonitrile], for which the Ki is greater than 40 nM.

In the case of `CC(Nc1ncc(C#N)c(-c2c[nH]c3ncc(C(F)(F)F)cc23)n1)C1(F)CCN(C(=O)CN)CC1` (stereo not drawn) [Compound I-234, 2-(1-(1-(2-aminoacetyl)-4-fluoropiperidin-4-yl)ethylamino)-4-(5-(trifluoromethyl)-1H-pyrrolo[2,3-b]pyridin-3-yl)pyrimidine-5-carbonitrile], the Ki is less than 3 nM.

Take `CC(C)(C)OC(=O)N1CCC(CNc2ncc(C#N)c(-c3c[nH]c4ncc(C(F)(F)F)cc34)n2)CC1` [Compound I-28, tert-butyl 4-((5-cyano-4-(5-(trifluoromethyl)-1H-pyrrolo[2,3-b]pyridin-3-yl)pyrimidin-2-ylamino)methyl)piperidine-1-carboxylate]: the Ki is greater than 40 nM.

In the case of `CNS(=O)(=O)c1ccc([C@@H](C)Nc2ncc(C#N)c(-c3c[nH]c4ncc(C(F)(F)F)cc34)n2)cc1` [Compound I-200, 4-((1R)-1-(5-cyano-4-(5-(trifluoromethyl)-1H-pyrrolo[2,3-b]pyridin-3-yl)pyrimidin-2-ylamino)ethyl)-N-methylbenzenesulfonamide], the Ki is less than 3 nM.

Take `CCC1(O)CCN(c2ccc(C(C)Nc3ncc(C#N)c(-c4c[nH]c5ncc(C(F)(F)F)cc45)n3)cn2)CC1` (stereo not drawn) [Compound I-197, 2-(1-(6-(4-ethyl-4-hydroxypiperidin-1-yl)pyridin-3-yl)ethylamino)-4-(5-(trifluoromethyl)-1H-pyrrolo[2,3-b]pyridin-3-yl)pyrimidine-5-carbonitrile]: the Ki lay in the range of 3 to 40 nM.

In the case of `C[C@@H](Nc1ncc(C#N)c(-c2c[nH]c3ncc(C(F)(F)F)cc23)n1)c1ccc(O[C@H]2CCN(C)C2)cc1` [Compound I-146, 2-((R)-1-(4-((S)-1-methylpyrrolidin-3-yloxy)phenyl)ethylamino)-4-(5-(trifluoromethyl)-1H-pyrrolo[2,3-b]pyridin-3-yl)pyrimidine-5-carbonitrile], the Ki was less than 3 nM.

Turning to `CC(=O)Nc1ccc(CNc2ncc(C#N)c(-c3c[nH]c4ncc(C(F)(F)F)cc34)n2)cc1` [Compound I-72, N-(4-((5-cyano-4-(5-(trifluoromethyl)-1H-pyrrolo[2,3-b]pyridin-3-yl)pyrimidin-2-ylamino)methyl)phenyl)acetamide], the Ki lay within 3 to 40 nM.

As for `CC(Nc1ncc(C#N)c(-c2c[nH]c3ncc(C(F)(F)F)cc23)n1)c1ccc(N[C@@H]2CCN(C)C2)nc1` (stereo partly drawn) [Compound I-293, 2-(1-(6-((R)-1-methylpyrrolidin-3-ylamino)pyridin-3-yl)ethylamino)-4-(5-(trifluoromethyl)-1H-pyrrolo[2,3-b]pyridin-3-yl)pyrimidine-5-carbonitrile], the Ki is less than 3 nM.

Turning to `CC(Nc1ncc(C#N)c(-c2c[nH]c3ncc(C(F)(F)F)cc23)n1)c1cccnc1` (stereo not drawn) [Compound I-51, 2-(1-(pyridin-3-yl)ethylamino)-4-(5-(trifluoromethyl)-1H-pyrrolo[2,3-b]pyridin-3-yl)pyrimidine-5-carbonitrile], the Ki is less than 3 nM.

As for `C[C@@H](Nc1ncc(C#N)c(-c2c[nH]c3ncc(C(F)(F)F)cc23)n1)[C@H]1CC[C@H](NC(=O)CN)CC1` [Compound I-264, 2-amino-N-((1R,4r)-4-((1R)-1-(5-cyano-4-(5-(trifluoromethyl)-1H-pyrrolo[2,3-b]pyridin-3-yl)pyrimidin-2-ylamino)ethyl)cyclohexyl)acetamide], the Ki is less than 3 nM.

In the case of `CCOc1ccc(C(C)Nc2ncc(C#N)c(-c3c[nH]c4ncc(C(F)(F)F)cc34)n2)cc1` (stereo not drawn) [Compound I-112, 2-(1-(4-ethoxyphenyl)ethylamino)-4-(5-(trifluoromethyl)-1H-pyrrolo[2,3-b]pyridin-3-yl)pyrimidine-5-carbonitrile], the Ki was less than 3 nM.

For the compound `C[C@@H](Nc1ncc(C#N)c(-c2c[nH]c3ncc(C(F)(F)F)cc23)n1)c1ccc(N2CC[C@@H](N(C)C)C2)nc1` [Compound I-286, 2-((R)-1-(6-((R)-3-(dimethylamino)pyrrolidin-1-yl)pyridin-3-yl)ethylamino)-4-(5-(trifluoromethyl)-1H-pyrrolo[2,3-b]pyridin-3-yl)pyrimidine-5-carbonitrile], the Ki was in the range of 3 to 40 nM.

Turning to `CCCC(C)Sc1ncc(C#N)c(-c2c[nH]c3ncc(C(F)(F)F)cc23)n1` (stereo not drawn) [II-16, 2-(pentan-2-ylthio)-4-(5-(trifluoromethyl)-1H-pyrrolo[2,3-b]pyridin-3-yl)pyrimidine-5-carbonitrile], the Ki is greater than 40 nM.

For the compound `CNC(=O)c1cccc(Nc2cnc3[nH]cc(-c4nc(NC(C)C)ncc4C#N)c3c2)c1` [EG7, 3-(3-(5-cyano-2-(isopropylamino)pyrimidin-4-yl)-1H-pyrrolo[2,3-b]pyridin-5-ylamino)-N-methylbenzamide], the Ki is 3 to 40 nM.

With `C[C@@H](Nc1ncc(C#N)c(-c2c[nH]c3ncc(C(F)(F)F)cc23)n1)C1CCNCC1` [Compound I-204, 2-((R)-1-(piperidin-4-yl)ethylamino)-4-(5-(trifluoromethyl)-1H-pyrrolo[2,3-b]pyridin-3-yl)pyrimidine-5-carbonitrile], the Ki is 3 to 40 nM.

In the case of `N#Cc1cnc(NCc2ccncc2)nc1-c1c[nH]c2ncc(C(F)(F)F)cc12` [Compound I-23, 2-(pyridin-4-ylmethylamino)-4-(5-(trifluoromethyl)-1H-pyrrolo[2,3-b]pyridin-3-yl)pyrimidine-5-carbonitrile], the Ki was greater than 40 nM.

Regarding `CCS(=O)(=O)Nc1ccc([C@@H](C)Nc2ncc(C#N)c(-c3c[nH]c4ncc(C(F)(F)F)cc34)n2)cc1` [Compound I-169, N-(4-((1R)-1-(5-cyano-4-(5-(trifluoromethyl)-1H-pyrrolo[2,3-b]pyridin-3-yl)pyrimidin-2-ylamino)ethyl)phenyl)ethanesulfonamide], the Ki is less than 3 nM.

Consider `C[C@H](O)[C@@H](N)C(=O)N1CCC([C@@H](C)Nc2ncc(C#N)c(-c3c[nH]c4ncc(C(F)(F)F)cc34)n2)CC1` [Compound I-249, 2-((R)-1-(1-((2R,3S)-2-amino-3-hydroxybutanoyl)piperidin-4-yl)ethylamino)-4-(5-(trifluoromethyl)-1H-pyrrolo[2,3-b]pyridin-3-yl)pyrimidine-5-carbonitrile], for which the Ki was less than 3 nM.

As to `CC(Nc1ncc(C#N)c(-c2c[nH]c3ncc(C(F)(F)F)cc23)n1)c1ccc(N2CC(O)(C3CC3)C2)nc1` (stereo not drawn) [Compound I-194, 2-(1-(6-(3-cyclopropyl-3-hydroxyazetidin-1-yl)pyridin-3-yl)ethylamino)-4-(5-(trifluoromethyl)-1H-pyrrolo[2,3-b]pyridin-3-yl)pyrimidine-5-carbonitrile], the Ki lay within 3 to 40 nM.

Take `CC(=O)N1CCC([C@@H](C)Nc2ncc(C#N)c(-c3c[nH]c4ncc(C(F)(F)F)cc34)n2)CC1` [Compound I-134, 2-((R)-1-(1-acetylpiperidin-4-yl)ethylamino)-4-(5-(trifluoromethyl)-1H-pyrrolo[2,3-b]pyridin-3-yl)pyrimidine-5-carbonitrile]: the Ki was less than 3 nM.

As for `CC[C@H](O)C(=O)N1CCC([C@@H](C)Nc2ncc(C#N)c(-c3c[nH]c4ncc(C(F)(F)F)cc34)n2)CC1` [Compound I-217, 2-((R)-1-(1-((S)-2-hydroxybutanoyl)piperidin-4-yl)ethylamino)-4-(5-(trifluoromethyl)-1H-pyrrolo[2,3-b]pyridin-3-yl)pyrimidine-5-carbonitrile], the Ki is less than 3 nM.

With `C[C@@H](Nc1ncc(C#N)c(-c2c[nH]c3ncc(C(F)(F)F)cc23)n1)c1ccc(N2CCN(Cc3ccccc3)CC2)cc1` [Compound I-130, 2-((R)-1-(4-(4-benzylpiperazin-1-yl)phenyl)ethylamino)-4-(5-(trifluoromethyl)-1H-pyrrolo[2,3-b]pyridin-3-yl)pyrimidine-5-carbonitrile], the Ki is less than 3 nM.

Take `CNC(=O)N1CCC(C(C)Nc2ncc(C#N)c(-c3c[nH]c4ncc(C(F)(F)F)cc34)n2)CC1` (stereo not drawn) [Compound I-160, 4-(1-(5-cyano-4-(5-(trifluoromethyl)-1H-pyrrolo[2,3-b]pyridin-3-yl)pyrimidin-2-ylamino)ethyl)-N-methylpiperidine-1-carboxamide]: the Ki is less than 3 nM.
